Assay results from paper PMC10476022 (RSC Advances, 2023).
Entries after “also recorded” stand apart in the source; their conditions may differ.

Legend:
[1] = Antioxidant potential by DPPH assay
Source text: Assessment of the toxicity is the prerequisite study for the synthetic derivatives. […] AChE enzyme provides the site for the aggregation of the Aβ1–42.

hAChE = biological target: T1, hAChE (Homo sapiens, UniProt P22303); test: biochemical; details: for Selectivity ratio: (IC50 of BuChE)/(IC50 of AChE); for IC50: tris-HCl buffer pH 8.0, read-out: IC50 ± SE hAChE
T1 construct: purchased Sigma Aldrich
T1 sequence (P22303 32-614): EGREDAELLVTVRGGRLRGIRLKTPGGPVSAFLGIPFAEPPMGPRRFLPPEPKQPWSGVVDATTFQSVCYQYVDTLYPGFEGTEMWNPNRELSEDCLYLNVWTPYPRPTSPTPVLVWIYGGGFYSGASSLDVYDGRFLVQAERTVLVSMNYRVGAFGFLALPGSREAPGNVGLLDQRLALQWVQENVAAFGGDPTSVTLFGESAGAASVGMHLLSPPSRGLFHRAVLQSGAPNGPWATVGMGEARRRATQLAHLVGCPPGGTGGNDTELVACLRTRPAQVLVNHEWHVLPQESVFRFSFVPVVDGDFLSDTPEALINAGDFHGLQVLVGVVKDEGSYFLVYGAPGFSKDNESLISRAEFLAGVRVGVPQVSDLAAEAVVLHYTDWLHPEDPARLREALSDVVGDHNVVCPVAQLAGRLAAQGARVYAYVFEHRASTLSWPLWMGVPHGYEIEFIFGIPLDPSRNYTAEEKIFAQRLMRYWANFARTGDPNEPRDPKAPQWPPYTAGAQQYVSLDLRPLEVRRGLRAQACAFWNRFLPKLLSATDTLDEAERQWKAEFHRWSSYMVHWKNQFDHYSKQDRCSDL
Procedure: (§1) Himedia supplied Acetylthiocholine iodide (AthCI), Butyrylthiocholine iodide (BthCI), and 5,5′-dithiobis (2-nitrobenzoic acid) (DTNB-reagent). […] AChE (50 μL, 1.00 U mL^−1) or BuChE (50 μL, 0.6 U mL^−1) and 20 μL of the test or standard compounds were incubated in a 96 well plate for 30 minutes at room temperature. […] The IC50 values were determined by measuring the absorbance of the test and standard substances. Three independent runs of the assays were conducted in triplicate.

hBuChE = biological target: T2, hBuChE (Homo sapiens, UniProt P06276); test: biochemical; format: biochemical; details: for IC50: tris-HCl buffer pH 8.0, read-out: IC50 ± SE hBuChE
T2 construct: purchased Sigma Aldrich
Procedure: as §1

Aβ1–42 = test system: T3, Aβ1–42; test: AChE-induced Aβ1–42 aggregation assay (ThT); format: biochemical
T3 construct: Aβ1–42, purchased from Sigma, was dissolved in 10 mM phosphate buffer; purchased Sigma
Procedure: The Aβ oligomers and aggregates formed with or without AChE and metal ions induce multifaceted toxicity leading to neuronal cell death. […] Aβ1–42, purchased from Sigma, was dissolved in 10 mM phosphate buffer (PBS) of pH 7.5 to get a stock concentration of […]. The test compounds were dissolved in the DMSO and further diluted with PBS. Different proportions of the Aβ1-42: Inhibitor (1 : 0.05, 1 : 1, 1 : 2) were used in the ThT assay. […] The mixtures were incubated at room temperature for 48 hours in the dark.

SH-SY5Y cell line = test: Cell line-based toxicity study (MTT assay); details: 72 h
Procedure: In recent decades, in vitro cell line research has become commonplace since they are useful for primary optimization and mechanistic investigations before toxicological studies on animals.[29]
Briefly, the cell lines (density 1 × 10^4 cells per wells) were plated in 96 well plates and incubated for 24 h at 37 °C in a humidified atmosphere with 5% CO2. […] The absorbance was measured at 570 nm, and the percent cell viability was calculated. Each treatment was executed in triplicate and data were presented as a percentage of the control.

| Structure (SMILES) | % free radicle scavenging, mean ± SE ([1]; 50 μM) [%] | % free radicle scavenging, mean ± SE ([1]; 100 μM) [%] | Selectivity ratio (hAChE) | IC50 (hAChE) [µM] | IC50 (hBuChE) [µM] | BuChE inhibition (in words) (hBuChE) | effect on AChE-induced Aβ1–42 aggregation (in words) (Aβ1–42; 0.5, 10, 20 μM, 48 h incubation) | AChE-induced Aβ aggregation inhibited (Aβ1–42; tested at 0.5, 10 and 20 μM) [%] | concentration with no significant toxicity (SH-SY5Y cell line) [µM] |
| --- | --- | --- | --- | --- | --- | --- | --- | --- | --- |
| O=C1O[C@H]([C@@H](O)CO)C(O)=C1O [Ascorbic acid, reference compound] | 42.66 ± 1.491 | 76.76 ± 0.708 |  |  |  |  |  |  |  |
| COc1ccc2c(c1)c(CC(=O)NN=Cc1cccc(O)c1)c(C)n2C(=O)c1ccc(Cl)cc1 [IND-24, (1-(4-Chlorobenzoyl)-5-methoxy-2-methyl-1H-indol-3-yl)-N′-(3-hydroxybenzylidene) aceto-hydrazide] | 17.68 ± 0.478 | 34.34 ± 1.333 | 7.83 | 12.5 ± 0.143 | 98.18 ± 0.12 |  |  |  |  |
| COc1cccc(C=NNC(=O)Cc2c(C)n(C(=O)c3ccc(Cl)cc3)c3ccc(OC)cc23)c1 [IND-25, (1-(4-Chlorobenzoyl)-5-methoxy-2-methyl-1H-indol-3-yl)-N′-(3-methoxybenzylidene) aceto-hydrazide] | 11.51 ± 0.748 | 27.99 ± 1.127 |  | 264.23 ± 0.102 | > 1000 | inactive on the BuChE enzyme |  |  |  |
| COc1ccc2c(c1)c(CC(=O)NN=Cc1ccc(O)cc1)c(C)n2C(=O)c1ccc(Cl)cc1 [IND-30, (1-(4-Chlorobenzoyl)-5-methoxy-2-methyl-1H-indol-3-yl)-N′-(4-hydroxybenzylidene)aceto-hydrazide] | 15.19 ± 0.881 | 30.65 ± 1.010 | 22.92 | 4.16 ± 0.063 | 95.34 ± 0.144 |  | effective only at the higher dose (20 μM); also recorded: decreased Aβ aggregation in a concentration-dependent manner; also recorded: active at 20 μM | ~50 | ≤ 30000 |
| COc1ccc2c(c1)c(CC(=O)NN=Cc1ccccc1OC)c(C)n2C(=O)c1ccc(Cl)cc1 [IND-31, (1-(4-Chlorobenzoyl)-5-methoxy-2-methyl-1H-indol-3-yl)-N′-(2-methoxybenzylidene)aceto-hydrazide] | 9.75 ± 0.625 | 26.43 ± 0.887 |  | 421.22 ± 0.086 | > 1000 | inactive on hBuChE |  |  |  |
| COc1ccc2c(c1)c(CC(=O)NN=Cc1c(O)cccc1O)c(C)n2C(=O)c1ccc(Cl)cc1 [IND-40, (1-(4-Chlorobenzoyl)-5-methoxy-2-methyl-1H-indol-3-yl)-N′-(2,6-dihydroxybenzylidene)aceto-hydrazide] | 24.10 ± 0.889 | 50.39 ± 0.930 | 9.77 | 70.54 ± 0.133 | 689.12 ± 0.128 |  |  |  |  |
| COc1ccc2c(c1)c(CC(=O)NN=Cc1cccc(O)c1O)c(C)n2C(=O)c1ccc(Cl)cc1 [IND-42, (1-(4-Chlorobenzoyl)-5-methoxy-2-methyl-1H-indol-3-yl)-N′-(2,3-dihydroxybenzylidene)aceto-hydrazide] | 18.21 ± 0.598 | 38.87 ± 1.012 | 5.44 | 122.75 ± 0.086 | 668.22 ± 0.133 |  |  |  |  |
